Source: US8215314B2, “Photochemical tissue bonding” (The General Hospital Corporation, priority 2000, dated 2012)

Tests used:
[1] = Absorption maxima and absorption coefficients of photosensitizers; format: physicochemical
Text: The photosensitizers were used as received with the exception of N-HPT which was recrystallized twice from aqueous ethanol before use.

[2] = system: corneal incision, rabbit eyes ex vivo; test: IOP required to produce fluid leakage from corneal incision (IOPL) after PTB, ex vivo; details: for mean IOPL: RB 1.5 mM, 514 nm
Protocol: PTB can be used to seal or repair a tissue, e.g., a wound, e.g., a corneal wound. This example illustrates the experimental procedure designed to test the efficacy of PTB, as described herein, using mammalian corneas ex vivo. Experiments were performed according to the following procedure.
Rabbit eyes were received on ice (Pel-Freez Biologicals) approximately 17-24 hours after sacrifice and enucleation. The eyes were kept on ice and used the same day. The eye to be studied was mounted on a plastic-covered polystyrene block and fixed in position by needles inserted through the extraocular muscles into the polystyrene. The eye was then placed under a dissecting microscope (Reichert Scientific Instruments, Ill.) allowing visualization of the treated area during the entire procedure. A 27 G needle was inserted parallel to the iris, 2 mm anterior to the limbus into clear cornea, and positioned above the lens in the anterior chamber. The needle was connected to both a blood pressure transducer (Harvard Apparatus, Mass.) and a mini-infuser 400 (Bard Harvard) via a T coupler. The pressure transducer consists of a transducer element that is hard wired to an amplifier box and uses a semi-disposable dome with an integral silicone rubber membrane. Pressure inside the dome is transmitted through the membrane to a plastic button whose motion is translated to a voltage. The voltage generated by the transducer amplifier combination is proportional to the […] intraocular pressure (IOP). Signals from the transducer amplifier were recorded using a Macintosh G3 Power book equipped with a PCMICA (DAQCARD—1200) data acquisition card (National Instruments, Tex.). Data acquisition was controlled using programs written using the LabView 4 software package (National Instruments, Tex.). The voltage from the transducer and amplifier was converted to pressure by calibrating with a standing manometer.
Experiments on individual eyes were initiated by increasing the IOP to 30-40 mm Hg, using water infusion at a rate of 1 mL per minute. An incision was made in the cornea, 1 mm from the limbus and parallel to the iris, using a 3.5 mm angled keratome (Becton Dickinson Co.). For each eye the IOP required to produce fluid leakage from the incision (IOPL) was recorded pre- and post-PTB treatment. A photosensitizer, dissolved in phosphate buffer solution (PBS, pH 7.2, Gibco BRL) was applied to the walls of the incision using a Gastight, 50 μl syringe (Hamilton Co.) with a 27 G needle.
Irradiations employed a continuous wave (CW) argon-ion laser (Innova 100; Coherent, Inc., Palo Alto, Calif.) at 488 nm (for Fl and R-5-P), 514.5 nm (for RB) or 351 nm (for NHPT). An argon-ion-pumped dye laser (CR-599; Coherent) with 4-dicyanomethylene-2-methyl-6-(p-dimethylaminostyryl)-4H-pyran dye (Exciton, Inc., Dayton, Ohio) was used for irradiation at 661 nm (for MB). Laser light was coupled into a 1 mm diameter quartz fiber and a 1 cm diameter spot on the tissue was created by using a combination of 1 and 2 inch focal length, S1-UV grade fused silica, biconvex lenses (Esco Products), mounted in a SM1 series cage assembly (Thorlabs, N.J.). The 1 cm diameter circular spot was sufficient to cover the entire incision and the optics were adjusted so that the laser light was incident on the cornea at an angle approximately 45° to the plane of the incision. Dose response curves were obtained by varying the duration of the irradiation at a constant irradiance. In separate experiments the effects of laser irradiance were investigated by comparison of the same delivered dose using different irradiances. The doses used ranged from 124 to 1524 J/cm^2 and the irradiances used were 0.64, 1.27, 2.55 and 3.86 W/cm^2. The laser exposure time varied from 33 seconds for the lowest dose using the highest irradiance to 26 minutes, 27 seconds for the highest dose using the lowest irradiance. The IOPL was recorded immediately following treatment. […]

[3] = system: partial thickness skin grafts; test: Skin graft adherence after PTB, ex vivo (tensiometer); design: species or system mini pigs; details: RB concentration 0.1% (w/v) among 0, 0.01, 0.1, 1%
Text: To test the ability of PTB to quickly and effectively bond skin grafts to a wound site, an ex vivo model utilizing mini pigs was developed. The use of porcine models in wound healing is well known by those skilled in the art. The similarities between porcine wound healing and that of humans enable one to extrapolate the therapeutic results obtained in a porcine model system to a therapeutic result in humans.
Partial thickness skin grafts of approximately 0.020 inch (corresponding to the thick partial-thickness grafts used in clinical situation) were harvested from mini pigs (2 to 7 months old, weight 15 to 43 kgs) after euthanasia. The grafts were temporarily stored by wrapping the graft around gauze, which was soaked in phosphate buffered saline (PBS). […]
The grafts were irradiated using a continuous-wave (CW) argon-ion laser (Innova 100; Coherent, Palo Alto, Calif.) at 514.5 nm. […] The irradiance of laser applied was 0.56 and 1.68 W/cm^2 while the dose-dependent response of the laser fluence from 126 to 504 J/cm^2 was determined. […]
Following the irradiation, the adherence of the skin grafts was tested utilizing a tensiometer (Chartillon) coupled to a force transducer (DFA2, Ametek). The applied force versus the displacement of the force plate was acquired through the transducer and recorded by computer software (Labview 4.0, National Instrument). […]

Structure (SMILES): O=C([O-])c1c(Cl)c(Cl)c(Cl)c(Cl)c1-c1c2cc(I)c(=O)c(I)c-2oc2c(I)c([O-])c(I)cc12.[Na+].[Na+] [Rose Bengal]
- absorption maximum [1]: 550 nm
- absorption coefficient at the laser wavelength used ([1]; RB at 514 nm, Fl at 488 nm, MB at 661 nm, R-5-P at 488 nm, N-HPT at 351 nm): 33000 dm^3 mol^−1 cm^−1
- mean IOPL post-treatment ([2]; 1.5 mM RB and 514 nm laser light): greater than 300±48 mm Hg
- mean IOPL ([2]; 1270 J/cm^2 at 1.27 W/cm^2): 274 mm Hg
- mean IOPL ([2]; 1270 J/cm^2 at 2.55 W/cm^2): 150 mm Hg
- mean IOPL ([2]; 1270 J/cm^2 at 3.86 W/cm^2): 130 mm Hg
- IOPL ([2]; RB, all doses delivered at 1.27 and 2.55 W/cm^2): greater than 100 mm Hg
- rise in IOPL ([2]; RB, doses below 508 J/cm^2 at any irradiance tested): No significant rise
- increase between pre- and post-treatment IOPL ([2]; photosensitizer alone, no laser irradiation): no significant increase
- skin graft adherence levels [3]: optimal increase
